molecular target: T1, 5-HT2A receptor (Homo sapiens, UniProt P28223); experiment: FLIPR Ca2+ flux functional assay, agonist activity at 5-HT2A; assay type: cell-based; details: stably transfected HEK293 cells
T1 construct: host or cells: HEK293
Procedure: (§1) Functional assays 5-HT2A, 5-HT2B and 5-HT2C Receptors
(§2) Activity at 5-HT2A, 5-HT2B and 5-HT2C receptors was determined using a FLIPR Ca2+ flux assay at WuXi AppTec Co. Ltd. (Hong Kong) Discovery Biology Unit according to their standard protocols. Briefly, stably transfected cells expressing the receptor of interest (HEK293 for 5-HT2A and 5-HT2C; CHO-K1 for 5-HT2B) were grown and plated in a 384 well plate and incubated at 37° C. and 5% CO2 overnight. A 250 mM stock solution of probenecid in FLIPR calcium assay buffer (10 mL) was freshly prepared and combined with a fluorescent dye (Fluo-4 Direct) to give a final assay concentration of 2.5 mM. Reference compounds were 4-fold serially diluted and the screening compounds were 3-fold serially diluted in 100% DMSO for 10 points using Agilent Bravo, and 750 nL was added to a 384 well compound plate using Echo along with 30 μL assay buffer. The fluorescent dye was then added to the assay plate along with assay buffer to a final volume of 40 μL. The cell plate was incubated for 50 min at 37° C. and 5% CO2 and placed into the FLIPR Tetra along with the compound plate. 10 μL of references and compounds were then transferred from the compound plate into the cell plate and the fluorescent signal was read.

T1 sequence (P28223 whole entry): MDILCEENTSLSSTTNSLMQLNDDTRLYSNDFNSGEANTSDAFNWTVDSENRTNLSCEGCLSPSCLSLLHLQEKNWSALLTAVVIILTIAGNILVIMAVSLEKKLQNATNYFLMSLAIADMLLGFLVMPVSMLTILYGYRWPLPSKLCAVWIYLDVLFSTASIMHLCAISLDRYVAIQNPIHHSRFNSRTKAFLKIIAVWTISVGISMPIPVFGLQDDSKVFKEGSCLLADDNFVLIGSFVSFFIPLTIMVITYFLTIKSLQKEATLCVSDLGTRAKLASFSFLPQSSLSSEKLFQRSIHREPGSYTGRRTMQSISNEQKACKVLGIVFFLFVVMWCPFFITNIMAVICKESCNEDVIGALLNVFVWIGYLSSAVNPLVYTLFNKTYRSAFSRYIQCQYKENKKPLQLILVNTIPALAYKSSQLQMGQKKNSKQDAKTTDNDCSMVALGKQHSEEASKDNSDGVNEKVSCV

Row | SMILES | EC50 [nM] | Emax [%]
1 | CCN(C)CCc1c[nH]c2ncc(Cl)cc12 [Compound S52, 2-(5-chloro-1H-pyrrolo[2,3-b]pyridin-3-yl)-N-ethyl-N-methylethan-1-amine] | 149 | 61
2 | C[C@@H]1CCN1CCc1c[nH]c2ncc(F)cc12 [Compound S49, (R)-5-fluoro-3-(2-(2-methylazetidin-1-yl)ethyl)-1H-pyrrolo[2,3-b]pyridine] | 65.7 | 78
3 | COc1ccccc1CNCCc1c[nH]c2ncc(C#N)cc12 [Compound S74, 3-(2-((2-methoxybenzyl)amino)ethyl)-1H-pyrrolo[2,3-b]pyridine-5-carbonitrile] | 7.7 | 93
4 | CC(C)N(C)CCc1c[nH]c2ncc(OC(F)(F)F)cc12 [Compound S65, N-methyl-N-(2-(5-(trifluoromethoxy)-1H-pyrrolo[2,3-b]pyridin-3-yl)ethyl)propan-2-amine] | 665 | 73
5 | CC1CCN1CCc1c[nH]c2ncc(F)cc12 (stereo not drawn) [Compound S16, 3-(2-(2-methylazetidin-1-yl)ethyl)-5-fluoro-1H-pyrrolo[2,3-b]pyridine] | 32.5 | 81
6 | CN(CCc1c[nH]c2ncc(F)cc12)C1CCC1 [Compound S12, N-(2-(5-fluoro-1H-pyrrolo[2,3-b]pyridin-3-yl)ethyl)-N-methylcyclobutanamine] | 79 | 84
7 | Fc1cnc2[nH]cc(CCNC3CC3)c2c1 [Compound S2, N-(2-(5-fluoro-1H-pyrrolo[2,3-b]pyridin-3-yl)ethyl)cyclopropanamine] | 10.8 | 92
8 | N#Cc1cnc2[nH]cc(CCNCc3ccccc3F)c2c1 [Compound S72, 3-(2-((2-fluorobenzyl)amino)ethyl)-1H-pyrrolo[2,3-b]pyridine-5-carbonitrile] | 179 | 70
9 | N#Cc1cnc2[nH]cc(CCN3CCC3)c2c1 [Compound S70, 3-(2-(azetidin-1-yl)ethyl)-1H-pyrrolo[2,3-b]pyridine-5-carbonitrile] | 681 | 78
10 | COc1cccc(CNCCc2c[nH]c3ncc(F)cc23)c1 [Compound S33, 2-(5-fluoro-1H-pyrrolo[2,3-b]pyridin-3-yl)-N-(3-methoxybenzyl)ethan-1-amine] | 8.27 | 82
11 | CC(C)N(C)CCc1c[nH]c2ncc(Br)cc12 [Compound S55, N-(2-(5-bromo-1H-pyrrolo[2,3-b]pyridin-3-yl)ethyl)-N-methylpropan-2-amine] | 158 | 73
12 | Fc1cnc2[nH]cc(CCNCC3CC3)c2c1 [Compound S17, N-(cyclopropylmethyl)-2-(5-fluoro-1H-pyrrolo[2,3-b]pyridin-3-yl)ethan-1-amine] | 134 | 84
13 | CN(CCc1c[nH]c2ncc(C#N)cc12)C1CC1 [Compound S68, 3-(2-(cyclopropyl(methyl)amino)ethyl)-1H-pyrrolo[2,3-b]pyridine-5-carbonitrile] | 566 | 70
14 | Fc1cccc(CNCCc2c[nH]c3ncc(F)cc23)c1 [Compound S31, 2-(5-fluoro-1H-pyrrolo[2,3-b]pyridin-3-yl)-N-(3-fluorobenzyl)ethan-1-amine] | 15.5 | 87
15 | Fc1cnc2[nH]cc(CCNCc3ccccc3F)c2c1 [Compound S30, 2-(5-fluoro-1H-pyrrolo[2,3-b]pyridin-3-yl)-N-(2-fluorobenzyl)ethan-1-amine] | 26.9 | 82
16 | CN(CCc1c[nH]c2ncc(F)cc12)CC1CC1 [Compound S43, N-(cyclopropylmethyl)-2-(5-fluoro-1H-pyrrolo[2,3-b]pyridin-3-yl)-N-methylethan-1-amine] | 155 | 71
17 | Fc1cnc2[nH]cc(CCN(C3CC3)C3CC3)c2c1 [Compound S5, N-cyclopropyl-N-(2-(5-fluoro-1H-pyrrolo[2,3-b]pyridin-3-yl)ethyl)cyclopropanamine] | 1070 | 82
18 | Fc1cnc2[nH]cc(CCN3CCC34CCC4)c2c1 [Compound S8, 3-(2-(1-azaspiro[3.3]heptan-1-yl)ethyl)-5-fluoro-1H-pyrrolo[2,3-b]pyridine] | 354 | 56
19 | Fc1cnc2[nH]cc(CCNCc3ccccc3)c2c1 [Compound S34, N-benzyl-2-(5-fluoro-1H-pyrrolo[2,3-b]pyridin-3-yl)ethan-1-amine] | 18 | 90
20 | Fc1cnc2[nH]cc(CCN3CCC3)c2c1 [Compound S9, 3-(2-(azetidin-1-yl)ethyl)-5-fluoro-1H-pyrrolo[2,3-b]pyridine] | 21 | 83
21 | COc1ccccc1CNCCc1c[nH]c2ncc(F)cc12 [Compound S32, 2-(5-fluoro-1H-pyrrolo[2,3-b]pyridin-3-yl)-N-(2-methoxybenzyl)ethan-1-amine] | 3.31 | 94
22 | Fc1cnc2[nH]cc(CCNC3CCC3)c2c1 [Compound S11, N-(2-(5-fluoro-1H-pyrrolo[2,3-b]pyridin-3-yl)ethyl)cyclobutanamine] | 136 | 80
23 | Fc1cnc2[nH]cc(CCN3CCOCC3)c2c1 [Compound S15, 4-(2-(5-fluoro-1H-pyrrolo[2,3-b]pyridin-3-yl)ethyl)morpholine] | 1940 | 72

molecular target: T2, 5-HT2C receptor (Homo sapiens, UniProt P28335); experiment: FLIPR Ca2+ flux functional assay, agonist activity at 5-HT2C; assay type: cell-based; details: stably transfected HEK293 cells
T2 construct: host or cells: HEK293
T2 sequence (P28335 33-458): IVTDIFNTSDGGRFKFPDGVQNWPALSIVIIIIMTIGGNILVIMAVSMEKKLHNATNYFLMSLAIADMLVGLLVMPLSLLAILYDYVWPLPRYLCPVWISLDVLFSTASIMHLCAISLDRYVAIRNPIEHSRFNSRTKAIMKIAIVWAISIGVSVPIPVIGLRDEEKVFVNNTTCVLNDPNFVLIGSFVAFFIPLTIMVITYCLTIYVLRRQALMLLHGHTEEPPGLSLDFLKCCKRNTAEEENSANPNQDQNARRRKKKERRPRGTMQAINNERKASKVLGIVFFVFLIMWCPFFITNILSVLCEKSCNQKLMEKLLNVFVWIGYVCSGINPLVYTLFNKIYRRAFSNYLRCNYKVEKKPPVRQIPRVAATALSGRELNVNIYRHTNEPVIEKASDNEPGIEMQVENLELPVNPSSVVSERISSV
Procedure: as §1, §2

Row | SMILES | EC50 [nM] | Emax [%]
24 | CCN(C)CCc1c[nH]c2ncc(Cl)cc12 [Compound S52, 2-(5-chloro-1H-pyrrolo[2,3-b]pyridin-3-yl)-N-ethyl-N-methylethan-1-amine] | 1950 | 49
25 | C[C@@H]1CCN1CCc1c[nH]c2ncc(F)cc12 [Compound S49, (R)-5-fluoro-3-(2-(2-methylazetidin-1-yl)ethyl)-1H-pyrrolo[2,3-b]pyridine] | > 10000 | 28
26 | COc1ccccc1CNCCc1c[nH]c2ncc(C#N)cc12 [Compound S74, 3-(2-((2-methoxybenzyl)amino)ethyl)-1H-pyrrolo[2,3-b]pyridine-5-carbonitrile] | 1880 | 88
27 | CC(C)N(C)CCc1c[nH]c2ncc(OC(F)(F)F)cc12 [Compound S65, N-methyl-N-(2-(5-(trifluoromethoxy)-1H-pyrrolo[2,3-b]pyridin-3-yl)ethyl)propan-2-amine] | > 10000 | 0
28 | CC1CCN1CCc1c[nH]c2ncc(F)cc12 (stereo not drawn) [Compound S16, 3-(2-(2-methylazetidin-1-yl)ethyl)-5-fluoro-1H-pyrrolo[2,3-b]pyridine] | 1100 | 60
29 | CN(CCc1c[nH]c2ncc(F)cc12)C1CCC1 [Compound S12, N-(2-(5-fluoro-1H-pyrrolo[2,3-b]pyridin-3-yl)ethyl)-N-methylcyclobutanamine] | 3370 | 50
30 | Fc1cnc2[nH]cc(CCNC3CC3)c2c1 [Compound S2, N-(2-(5-fluoro-1H-pyrrolo[2,3-b]pyridin-3-yl)ethyl)cyclopropanamine] | 187 | 92
31 | N#Cc1cnc2[nH]cc(CCNCc3ccccc3F)c2c1 [Compound S72, 3-(2-((2-fluorobenzyl)amino)ethyl)-1H-pyrrolo[2,3-b]pyridine-5-carbonitrile] | 5070 | 47
32 | N#Cc1cnc2[nH]cc(CCN3CCC3)c2c1 [Compound S70, 3-(2-(azetidin-1-yl)ethyl)-1H-pyrrolo[2,3-b]pyridine-5-carbonitrile] | > 10000 | 16
33 | COc1cccc(CNCCc2c[nH]c3ncc(F)cc23)c1 [Compound S33, 2-(5-fluoro-1H-pyrrolo[2,3-b]pyridin-3-yl)-N-(3-methoxybenzyl)ethan-1-amine] | 244 | 87
34 | CC(C)N(C)CCc1c[nH]c2ncc(Br)cc12 [Compound S55, N-(2-(5-bromo-1H-pyrrolo[2,3-b]pyridin-3-yl)ethyl)-N-methylpropan-2-amine] | 3590 | 34
35 | Fc1cnc2[nH]cc(CCNCC3CC3)c2c1 [Compound S17, N-(cyclopropylmethyl)-2-(5-fluoro-1H-pyrrolo[2,3-b]pyridin-3-yl)ethan-1-amine] | 4120 | 35
36 | CN(CCc1c[nH]c2ncc(C#N)cc12)C1CC1 [Compound S68, 3-(2-(cyclopropyl(methyl)amino)ethyl)-1H-pyrrolo[2,3-b]pyridine-5-carbonitrile] | 4570 | 44
37 | Fc1cccc(CNCCc2c[nH]c3ncc(F)cc23)c1 [Compound S31, 2-(5-fluoro-1H-pyrrolo[2,3-b]pyridin-3-yl)-N-(3-fluorobenzyl)ethan-1-amine] | 515 | 76
38 | Fc1cnc2[nH]cc(CCNCc3ccccc3F)c2c1 [Compound S30, 2-(5-fluoro-1H-pyrrolo[2,3-b]pyridin-3-yl)-N-(2-fluorobenzyl)ethan-1-amine] | 512 | 83
39 | CN(CCc1c[nH]c2ncc(F)cc12)CC1CC1 [Compound S43, N-(cyclopropylmethyl)-2-(5-fluoro-1H-pyrrolo[2,3-b]pyridin-3-yl)-N-methylethan-1-amine] | 2740 | 55
40 | Fc1cnc2[nH]cc(CCN(C3CC3)C3CC3)c2c1 [Compound S5, N-cyclopropyl-N-(2-(5-fluoro-1H-pyrrolo[2,3-b]pyridin-3-yl)ethyl)cyclopropanamine] | > 10000 | 28
41 | Fc1cnc2[nH]cc(CCN3CCC34CCC4)c2c1 [Compound S8, 3-(2-(1-azaspiro[3.3]heptan-1-yl)ethyl)-5-fluoro-1H-pyrrolo[2,3-b]pyridine] | > 10000 | 0
42 | Fc1cnc2[nH]cc(CCNCc3ccccc3)c2c1 [Compound S34, N-benzyl-2-(5-fluoro-1H-pyrrolo[2,3-b]pyridin-3-yl)ethan-1-amine] | 319 | 84
43 | Fc1cnc2[nH]cc(CCN3CCC3)c2c1 [Compound S9, 3-(2-(azetidin-1-yl)ethyl)-5-fluoro-1H-pyrrolo[2,3-b]pyridine] | 1480 | 72
44 | COc1ccccc1CNCCc1c[nH]c2ncc(F)cc12 [Compound S32, 2-(5-fluoro-1H-pyrrolo[2,3-b]pyridin-3-yl)-N-(2-methoxybenzyl)ethan-1-amine] | 206 | 89
45 | Fc1cnc2[nH]cc(CCNC3CCC3)c2c1 [Compound S11, N-(2-(5-fluoro-1H-pyrrolo[2,3-b]pyridin-3-yl)ethyl)cyclobutanamine] | > 10000 | 25
46 | Fc1cnc2[nH]cc(CCN3CCOCC3)c2c1 [Compound S15, 4-(2-(5-fluoro-1H-pyrrolo[2,3-b]pyridin-3-yl)ethyl)morpholine] | > 10000 | 0

molecular target: T3, 5-HT2B receptor (Homo sapiens, UniProt P41595); experiment: 5-HT2B activation in a similar assay at a single 10 μM concentration; assay type: cell-based; details: not given
T3 construct: host or cells: CHO-K1
T3 sequence (P41595 whole entry): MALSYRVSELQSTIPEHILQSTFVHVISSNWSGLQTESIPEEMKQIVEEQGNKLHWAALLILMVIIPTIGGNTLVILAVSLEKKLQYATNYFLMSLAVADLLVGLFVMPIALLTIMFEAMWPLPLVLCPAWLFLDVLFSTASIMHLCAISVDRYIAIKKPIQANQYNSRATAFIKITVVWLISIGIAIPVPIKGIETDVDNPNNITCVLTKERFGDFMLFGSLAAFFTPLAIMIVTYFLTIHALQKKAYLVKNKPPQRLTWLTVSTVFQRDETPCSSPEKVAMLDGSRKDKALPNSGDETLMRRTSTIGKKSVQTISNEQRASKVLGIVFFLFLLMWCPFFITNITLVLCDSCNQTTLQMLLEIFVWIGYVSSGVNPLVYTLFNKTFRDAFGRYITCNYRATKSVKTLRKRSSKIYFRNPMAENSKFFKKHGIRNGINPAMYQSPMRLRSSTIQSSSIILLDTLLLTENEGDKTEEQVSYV
Procedure: Activation data are provided in a similar assay tested at a single 10 μM concentration.

Row | SMILES | 5-HT2B % Activation @ 10 μM [%]
47 | CCN(C)CCc1c[nH]c2ncc(Cl)cc12 [Compound S52, 2-(5-chloro-1H-pyrrolo[2,3-b]pyridin-3-yl)-N-ethyl-N-methylethan-1-amine] | 3
48 | C[C@@H]1CCN1CCc1c[nH]c2ncc(F)cc12 [Compound S49, (R)-5-fluoro-3-(2-(2-methylazetidin-1-yl)ethyl)-1H-pyrrolo[2,3-b]pyridine] | 0
49 | COc1ccccc1CNCCc1c[nH]c2ncc(C#N)cc12 [Compound S74, 3-(2-((2-methoxybenzyl)amino)ethyl)-1H-pyrrolo[2,3-b]pyridine-5-carbonitrile] | 15
50 | CC(C)N(C)CCc1c[nH]c2ncc(OC(F)(F)F)cc12 [Compound S65, N-methyl-N-(2-(5-(trifluoromethoxy)-1H-pyrrolo[2,3-b]pyridin-3-yl)ethyl)propan-2-amine] | 1
51 | Fc1cnc2[nH]cc(CCNC3CC3)c2c1 [Compound S2, N-(2-(5-fluoro-1H-pyrrolo[2,3-b]pyridin-3-yl)ethyl)cyclopropanamine] | 74
52 | N#Cc1cnc2[nH]cc(CCNCc3ccccc3F)c2c1 [Compound S72, 3-(2-((2-fluorobenzyl)amino)ethyl)-1H-pyrrolo[2,3-b]pyridine-5-carbonitrile] | 0
53 | N#Cc1cnc2[nH]cc(CCN3CCC3)c2c1 [Compound S70, 3-(2-(azetidin-1-yl)ethyl)-1H-pyrrolo[2,3-b]pyridine-5-carbonitrile] | 0
54 | CC(C)N(C)CCc1c[nH]c2ncc(Br)cc12 [Compound S55, N-(2-(5-bromo-1H-pyrrolo[2,3-b]pyridin-3-yl)ethyl)-N-methylpropan-2-amine] | 4
55 | Fc1cnc2[nH]cc(CCNCC3CC3)c2c1 [Compound S17, N-(cyclopropylmethyl)-2-(5-fluoro-1H-pyrrolo[2,3-b]pyridin-3-yl)ethan-1-amine] | 7
56 | CN(CCc1c[nH]c2ncc(C#N)cc12)C1CC1 [Compound S68, 3-(2-(cyclopropyl(methyl)amino)ethyl)-1H-pyrrolo[2,3-b]pyridine-5-carbonitrile] | 11

— patent US20250361233A1, “Compounds For Activating Serotonin Receptor” (PSYLO PTY LTD, priority 2023, published 2025)
